{
  "source": "patent US9439910B2",
  "about": "“Fe(III)-pyrazine complex compounds for treatment and prophylaxis of iron-deficiency phenomena and iron-deficiency anaemia” (VIFOR (INTERNATIONAL) AG, priority 2012, dated 2016)",
  "system": "Male NMRI (SPF) mice",
  "assay": "Fe utilization in mouse model (low-iron diet, oral administration by stomach tube)",
  "assay_type": "in vivo",
  "details": "for Utilization n 15 d: mice fed low-iron diet (approx. 5 ppm iron) approx. 3 weeks, 2 mg iron/kg body weight/day by stomach tube, days 1-5 and 8-12, utilization on day 15 calculated from hemoglobin increase and body weight increase; for iron utilization compared to the pyridine comparative compound: same mouse model, comparison in words with the comparative example",
  "protocol": "The excellent Fe utilizations that can be accomplished through the Fe complexes according to the invention were measured by means of the following mouse model. Male NMRI (SPF) mice (approximately 3 weeks old) were fed a low-iron diet (approx. 5 ppm iron) for approximately 3 weeks. The iron complexes were then administered to them by means of a stomach tube (2 mg iron/kg body weight/day) for 2 times 5 days, with an interruption of 2 days (days 1-5 and 8-12). 6 mice were the control group (negative control) and were administered with water instead. Utilization on day 15 was calculated from the hemoglobin increase and the body weight increase in accordance with the formula [formula]",
  "data": [
    {"substance": "Tris-(3,5,6-trimethylpyrazine-2-ol-1-oxide)iron(III)-complex [Example 4]", "values": [
      {"measurement": "Utilization n 15 d", "result": 32, "unit": "abs. %"},
      {"measurement": "iron utilization compared to the pyridine comparative compound", "result": "improved iron utilization"}
    ]},
    {"substance": "Tris-(3,6-dimethylpyrazine-2-ol-1-oxide)-iron(III)-complex [Example 10]", "values": [
      {"measurement": "Utilization n 15 d", "result": 58, "unit": "abs. %"},
      {"measurement": "iron utilization compared to the pyridine comparative compound", "result": "improved iron utilization"}
    ]},
    {"substance": "Tris-(3-methylpyrazine-2-ol-1-oxide)iron(III)-complex [Example 3]", "values": [
      {"measurement": "Utilization n 15 d", "result": 77, "unit": "abs. %"},
      {"measurement": "iron utilization compared to the pyridine comparative compound", "result": "improved iron utilization"}
    ]},
    {"substance": "Tris-(5,6-dimethyl pyrazine-2-ol 1-oxide)iron(III)-complex [Example 2]", "values": [
      {"measurement": "Utilization n 15 d", "result": 61, "unit": "abs. %"},
      {"measurement": "iron utilization compared to the pyridine comparative compound", "result": "improved iron utilization"}
    ]},
    {"substance": "Tris-(5-methylpyrazine-2-ol-1-oxide)iron(III)-complex [Example 5]", "values": [
      {"measurement": "Utilization n 15 d", "result": 37, "unit": "abs. %"},
      {"measurement": "iron utilization compared to the pyridine comparative compound", "result": "improved iron utilization"}
    ]},
    {"substance": "Tris-(pyrazine-2-ol 1-oxide)iron(III)-complex [Example 1]", "values": [
      {"measurement": "Utilization n 15 d", "result": 56, "unit": "abs. %"},
      {"measurement": "iron utilization compared to the pyridine comparative compound", "result": "significantly improved iron utilization"}
    ]}
  ]
}
